Measurements from patent publication US6203822A, “Gallium-containing compounds for the treatment of infections caused by intracellular pathogens and pathogens causing chronic pulmonary infection” (priority 1996, dated 2001).

What was measured:
[1] = infused in vivo; cited from earlier work
[2] = test system: Leishmania chagasi promastigotes; assay: Inhibition of Leishmania chagasi promastigote growth; assay type: cell-based
Procedure: Visceral leishmaniasis, the most serious form of human disease cause by Leishmania species, is fatal if untreated. Currently available treatment regimes suffer from both suboptimal efficacy and considerable toxicity. […] Leishmania chagasi, the cause of visceral leishmaniasis requires iron for growth and can obtain that iron from human transferrin, lactoferrin and hemin. When incubated in an in vitro culture system (using the culture methods of Wilson et al. Infect. Immun. 62:3262-3269, 1994), L. chagasi promastigotes were inhibited by the presence of gallium nitrate in a concentration dependent manner with inhibition observed at about at least 500 μM and higher (see Example 14 and FIG. 9).
Amastigotes were isolated from the spleens of infected hamsters and allowed to convert to promastigotes by cultivation in a modified minimal essential medium (HOMEM) with 10% heat inactivated fetal calf serum and hemin (8 μM). Parasites were used within 21 days of isolation from an infected hamster. Promastigote cultures were seeded at 10^6 promastigotes per ml and used after 2 to 3 days in logarithmic phase or 5 to 7 days in stationary phase of growth. During growth studies with gallium nitrate, promastigotes were suspended in iron-containing HOMEM to allow for organism growth. […]

[3] = test system: Macrophages (MDMs) infected with M. tuberculosis; assay: Monolayer density of macrophages (MDMs) infected with M. tuberculosis and treated with gallium nitrate; assay type: cell-based, human
Procedure: Macrophages were infected with M. tuberculosis at a ratio of 1:5 (MDMs:bacteria) and treated with 500 μM or 1 mM gallium nitrate. Cell density was assessed over time. The results of the experiments comparing the monolayer integrity of untreated vs. gallium nitrate treated cultures were as follows: […]

[4] = test system: M. tuberculosis strain Erdman in human macrophages; assay: Growth inhibition of M. tuberculosis Erdman in human monocyte derived macrophages (MDM); assay type: cell-based
Procedure: Monocyte derived macrophages (MDM) containing strain H37Ra were incubated for 24 h (FIG. 2A), 48 h (FIG. 2B) or 72 h (FIG. 2C) and macrophages containing the virulent strain Erdman were incubated for 24 h (FIG. 2D) or 48 h (FIG. 2E) in gallium nitrate.
The gallium-containing compounds can also be tested for their ability to inhibit intracellular pathogens in tissue culture assays. In general, in these assays, the macrophages are placed in culture and incubated with the intracellular pathogen at an approximate cell to pathogen ratio of preferably at least 1:1 to about 1:5 cells:pathogen. Exemplary culture conditions are provided in the assays detailed in the Examples. For assays assessing M. tuberculosis infection, freshly adherent monocytes, 12 day-old adherent MDMs, or freshly adherent alveolar macrophages are incubated with M. tuberculosis, MAI or other intracellular bacteria at a ratio of about 1:1 to about 1:5 (phagocyte:bacterium). For M. tuberculosis or MAI, the bacteria are incubated with the phagocyte for 2 hr at 37° C. in RPMI/HEPES media with 2.5% serum or human serum albumin (serum-free). The cells are washed to remove non-adherent bacteria and monolayers are replated with RPMI containing 1% autologous serum (to maintain phagocyte viability but not to sustain extracellular growth of bacteria). Gallium-containing compounds, such as gallium nitrate, with, or without, other agents such as antibiotics, cytokines etc., are added about 24 hr. later and mycobacterial growth in cell lysates is then assessed over the next several days either by the radiometric BACTEC system or by colony-forming units on agarose plates. In each experiment, growth is assessed relative to control monolayers where no drug has been added.
Mononuclear phagocytes from healthy adult volunteers who were tuberculin skin test negative and had no history of mycobacterial infection were isolated and cultured in Teflon wells according to the methods of Schlesinger, et al. (J. Immunol. 150:2920-2930, 1993). […]

[5] = test system: M. avium-intracellulare complex (MAI), ATCC #25291; assay: Growth inhibition of MAI (ATCC isolate) in human alveolar macrophages; assay type: cell-based; settings: 500 μM, 24 hr and 48 hr
Procedure: M. avium-intracellulare complex (MAI) was obtained from the ATCC (#25291) and from a patient isolate from the State Hygienic laboratory at the University of Iowa Hospital and Clinics. Human alveolar macrophages were obtained from broncholavage of healthy patients and placed in monolayer culture. The bacteria were added to the cells in a bacteria to macrophage ratio of about 1:1. Growth index readings were obtained at 24 hr and 48 hr after gallium nitrate administration (500 μM) as described in Example 3 and used by Cavalieri, et al. (Antimicrob. Agents and Chemo. 39:1542-1545,1995).

[6] = cited from earlier work

## O=[N+]([O-])[O-].O=[N+]([O-])[O-].O=[N+]([O-])[O-].[Ga+3] [gallium nitrate]
[1]
  binding to serum transferrin on infusion: most of the gallium binds rapidly to serum transferrin
[2]; L. chagasi promastigotes
  concentration at which inhibition was observed: at least 500 μM
[2]; about 250 μM to about 2 mM, about 24 to about 120 hrs
  inhibition of promastigote growth: significantly inhibited
[3]; Experiment #2, Day 1, 24 hr postinfection, 500 μM or 1 mM
  Monolayer Integrity: No difference between Ga-treated and control
[3]; Experiment #2, Day 3, 4 days postinfection, 500 μM or 1 mM
  Monolayer Integrity: No difference between Ga-treated and control
[3]; Experiment #2, Day 6, 7 days postinfection, 500 μM or 1 mM
  Monolayer Integrity: times the number of cells in Ga-treated cultures: 2-4 times
[3]; Experiment No. 1, Day 1, 24 h postinfection, 500 μM or 1 mM
  Monolayer Integrity: No difference
[3]; Experiment No. 1, Day 8, 9 days postinfection, 500 μM or 1 mM
  Monolayer Integrity: more cells in Ga-treated cultures: 25-50%
[3]; Experiment No. 1, Day 11, 12 days postinfection, 500 μM or 1 mM
  Monolayer Integrity: times as many cells in Ga-treated cultures: 4-5 times
[3]; Experiment No. 1, Day 29, 30 days postinfection, 500 μM or 1 mM
  Monolayer Integrity: times as many cells in Ga-treated cultures: 4-5 times
[3]; Experiment No. 1, Day 33, 34 days postinfection, control wells had no cells left
  Monolayer Integrity: No difference between monolayers treated
[4]; 24 h
  inhibition of growth: Inhibition of growth was observed
[4]; about 1 to about 1000 μM
  inhibition of growth: dose-dependent inhibition of growth
[4]; text: 48 and 72 h, FIG. 2 legend: 24 and 48 h for Erdman
  inhibition of growth versus 24 h: More marked inhibition of growth
[5]
  growth inhibition of MAI: inhibits the growth of MAI
[5]; listed as Gallium nitrate
  growth inhibition of MAI: significant inhibition of MAI growth
[6]; in vivo
  dose that is non-toxic in vivo: at least 200 mg/m^2 /day
  plasma concentration that is non-toxic in vivo: greater than 1.2 mg/L
[6]; intravenous, at least 7 days (Todd et al.)
  tolerated dose: at least 200 mg/m^2 /day
[6]; literature, cancer patients
  safe dose in cancer patient therapy: at least 200 mg/m^2 /day
[6]; patients with cancer-related hypercalcemia
  tolerability: well tolerated, producing few clinically relevant adverse effects
